Experimental findings from patent publication US20240335462A1, “SULFUR/PHOSPHORUS-CONTAINING ARYL COMPOUND AND APPLICATION THEREOF” (MEDSHINE DISCOVERY INC., priority 2021, published 2024) are described below.

What all share (type): cell-based
The test system of assay [1] is JAK1/2 signaling pathway (IL-6/pSTAT3). As to the kind of experiment: IL-6-induced STAT phosphorylation in human whole blood. How it is done: (§1) The purpose of this experiment was to detect the inhibitory effect of the compound on the JAK-STAT signaling pathway activated by cytokines in human whole blood or platelet-rich plasma. Fresh human whole blood/platelets were placed in a 96-well plate. The test compound was added and incubated for 1 hour, followed by stimulation with various cytokines. The corresponding STAT phosphorylation levels in different cell populations were analyzed using flow cytometer by means of surface antibody staining and intracellular phosphorylated antibody staining. The experiments using the cytokines IFN-α, […] as stimulants were conducted in human whole blood, whereas the experiment using the cytokine TPO as a stimulant was conducted in platelet-rich plasma.
(§2) • a) Fresh blood from volunteers was collected using EDTA anticoagulant tubes. • b) 90 μL per well of whole blood was rapidly seeded into a 96-well plate and incubated in a cell culture incubator for 15 minutes. […] The plate was centrifuged at 500×g for 8 minutes, and the supernatant was discarded. • g) The cell pellet was washed once with pre-cooled PBS. • h) After discarding the supernatant, anti-human CD3 antibody was added thereto, followed by incubation at room temperature for 40 minutes. • i) The plate was centrifuged at 500×g for 8 minutes, then the supernatant was discarded, and the cells were washed twice with 200 μL of pre-cooled PBS. • j) The cells were resuspended in 200 μL of pre-cooled Perm Buffer III per well and permeabilized on ice for 60 minutes. • k) The plate was centrifuged at 600×g for 8 minutes, then the supernatant was discarded, and the cells were washed twice with pre-cooled PBS. • l) Intracellular staining with anti-pSTAT5 antibody was carried out, followed by incubation at room temperature for 60 minutes. • m) The cells were centrifuged at 600×g for 8 minutes, washed twice with PBS, resuspended in 200 μL of PBS, and detected using the CytoFlex S flow cytometer. • n) Data analysis was conducted using FlowJo and GraphPad Prism 8 software.
(§3) Data were analyzed using FlowJo software. […]

In assay [2] the test system is JAK2/2 signaling pathway (TPO/pSTAT5). The experiment in a line: TPO-induced STAT phosphorylation in human platelet-rich plasma. How it is done: as §1
• a) Fresh blood from volunteers was collected using EDTA anticoagulant tubes and centrifuged at 200 g for 20 minutes to prepare platelet-rich plasma (PRP). • b) 90 μL per well of PRP was rapidly seeded into a 96-well plate and incubated in a cell culture incubator for 15 minutes. […] The plate was then incubated in the incubator for 15 minutes. • d) After incubation, the plate was centrifuged at 1000×g for 10 minutes, then the supernatant was discarded, and the cells were washed twice with 200 μL of PBS. • e) PE-anti-human CD61 antibody was added to each well, followed by incubation at room temperature for 40 minutes. • f) After incubation, the plate was centrifuged at 1000×g for 10 minutes, then the supernatant was discarded, and the cells were washed twice with 200 μL of PBS. • g) The cells were resuspended in 200 μL of pre-cooled Perm Buffer III and permeabilized on ice for 60 minutes. • h) The plate was centrifuged at 1000×g for 10 minutes, then the supernatant was discarded, and the cells were washed twice with pre-cooled PBS. • i) Intracellular anti-pSTAT5 phosphorylated antibody was added thereto, followed by incubation at room temperature for 60 minutes. • j) The cells were washed twice with PBS and resuspended in 200 μL of PBS, and then detected using the CytoFlex S flow cytometer. […]

The test system of assay [3] is JAK1/3 signaling pathway (IL-2/pSTAT5). As to the kind of experiment: IL-2-induced STAT phosphorylation in human whole blood. How it is done:
as §1, §2, §3

Where only a bound is given, the exact number is not on record here.

Turning to `CNC(=O)c1cnc(NC(=O)C2CC2)cc1Nc1cccc(-c2ccc(S(=O)(=O)C(C)C)cn2)c1OC` [WX-020], the IC50 in assay [1], in assay [2] and in assay [3] was greater than 100 µM each time.
`CNC(=O)c1cnc(NC(=O)C2CC2)cc1Nc1cccc(-c2ncc(S(=O)(=O)C(C)C)cn2)c1OC` [WX-019]: the IC50 in assay [1] was 33.9 µM; in assay [2] it was greater than 100 µM; in assay [3], 33.8 µM.
The matching figures for `CNC(=O)c1nnc(NC(=O)C2CC2)cc1Nc1cccc(-c2ncc(S(=N)(=O)C(C)C)cn2)c1OC` (single isomer, unassigned) [WX-011A]: 10.8 µM, greater than 100 µM and 11.2 µM.

One may read the IC50 as the concentration needed to halve the response being measured. Lower therefore signals inhibition by little substance.
